Activity calls are given as the source filed them. The calls are words filed in the database; no cut-off is given here.
Tested on: Mus musculus
Assay: Anticonvulsant activity in mouse assessed as inhibition of pentylenetetrazole-induced seizure at 100 to 300 mg/kg
Type: functional, organism-based

Structure (SMILES)	Activity
COC(=O)C1C(=O)C=C(Nc2ccc(OC(F)(F)F)cc2)CC1C (stereo not drawn)	Active
COC(=O)C1C(=O)C=C(Nc2ccccc2F)CC1C (stereo not drawn)	Active
COC(=O)C1C(=O)C=C(Nc2ccc(Cl)cc2)CC1(C)C (stereo not drawn)	Active
CCOC(=O)C1C(=O)C=C(Nc2ccc(F)cc2)CC1C (stereo not drawn)	Active
COC(=O)C1C(=O)C=C(Nc2ccc(C(F)(F)F)cc2)CC1C (stereo not drawn)	Active
COC(=O)C1C(=O)C=C(Nc2ccc(Br)cc2)CC1C (stereo not drawn)	Active
CC1CC(=O)C=C(Nc2ccc(OC(F)(F)F)cc2)C1 (stereo not drawn)	Active
CC1CC(=O)C=C(Nc2cccc(Br)c2)C1 (stereo not drawn)	Active
COc1ccc(N/C(C)=C/C(C)=O)cc1	Active
COC(=O)C1C(=O)C=C(Nc2ccc(Cl)cn2)CC1C (stereo not drawn)	Active
CCOC(=O)C1CCC(Nc2cccc(OC(F)(F)F)c2)=CC1=O (stereo not drawn)	Active
CCOC(=O)C1C(=O)C=C(Nc2cc(C)ccc2OC)CC1C (stereo not drawn)	Active
CC(=O)/C=C(\C)Nc1ccc(I)cc1	Active
COC(=O)C1C(=O)C=C(Nc2ccc(Cl)c(Cl)c2)CC1C (stereo not drawn)	Active
CCc1ccc(N/C(C)=C/C(C)=O)cc1	Active
CCOC(=O)C1C(=O)C2=C(CC1C)Nc1ccc(Cl)cc1S2 (stereo not drawn)	Active
CC1CC(=O)C=C(Nc2cccc(Cl)c2)C1 (stereo not drawn)	Active
CC1CC(=O)C=C(Nc2ccc(Cl)cc2)C1 (stereo not drawn)	Active
CC(=O)/C=C(\C)Nc1ccc(Cl)cc1	Active
CCOC(=O)C1C(=O)C=C(Nc2ccc(Cl)cn2)CC1C (stereo not drawn)	Active
CCOC(=O)C1C(=O)C=C(Nc2ccc(Cl)cc2Cl)CC1C (stereo not drawn)	Active
CC(=O)/C=C(\C)Nc1ccc(Br)cc1	Active
CC1CC(=O)C=C(Nc2ccc(F)cc2)C1 (stereo not drawn)	Active
COC(=O)C1C(=O)C=C(Nc2ccc(F)cc2)CC1C (stereo not drawn)	Active
CCOC(=O)C1C(=O)C=C(Nc2ccc(Cl)c(Cl)c2)CC1C (stereo not drawn)	Active

Tested on: Mus musculus
Assay: Anticonvulsant activity in mouse assessed as inhibition of pentylenetetrazole-induced seizure at 100 mg/kg
Type: functional, organism-based
Set-up: dose 100 mg/kg

Structure (SMILES)	Activity
CCOC(=O)C1C(=O)C=C(Nc2ccc(C#N)cc2)CC1C (stereo not drawn)	Active
NC1=CC(=O)CCC1	Active
CCOC(=O)C1C(=O)C=C(NC(=O)c2ccc(C)cc2)CC1C (stereo not drawn)	Active
CC1(C)CC(=O)C=C(NC(=O)c2ccc(C#N)cc2)C1	Active
COC(=O)C1C(=O)C=C(Nc2ccc(C(F)(F)F)cc2)CC1(C)C (stereo not drawn)	Active
N#Cc1ccc(C(=O)NC2=CC(=O)CCC2)cc1	Active
COc1ccc(C(=O)NC2=CC(=O)CC(C)C2)cc1 (stereo not drawn)	Active
CCOC(=O)C1C(=O)C=C(Nc2ccc(Cl)cc2)CC1C (stereo not drawn)	Active

Source: ChEMBL document CHEMBL1139335, “Enaminones 8: CoMFA and CoMSIA studies on some anticonvulsant enaminones” (Bioorg Med Chem, 2009)
